The target in series [1] is T1, D2R (Rattus norvegicus, UniProt P61169).
T1 construct: from tissue; host or cells: striatum of adult male Wistar rats
The series can be described thus: Competition binding of [3H]-YM-09151-2 to D2-like receptors in rat striatal membranes. The protocol: Finally, to evaluate the selectivity of the substances, classic binding to D2-like receptors was performed using rat striatal membranes. Adult male Wistar rats (2.5–3 months) were killed by decapitation, their brains were immediately removed on ice and the striatum was dissected and stored in liquid nitrogen until use. This procedure was approved by the Institutional Ethical Committee for Animal Care from the Federal University of Rio de Janeiro (CEUA no. 052/19; 30 April 2019). The striatum was homogenized in a motorized Potter-type apparatus with a Teflon piston at 4 °C at 20 volumes per gram of tissue in ice-cold 50 mM Tris-HCl buffer (pH 7.4) containing 8 mM MgCl2 and 5 mM ethylenediaminetetraacetic acid (EDTA). The resulting suspension was ultracentrifuged at 48,000× g at 4 °C for 20 min. The pellet was resuspended in 20 volumes of the same buffer and incubated at 37 °C for 10 min to remove endogenous neurotransmitters. This suspension was cooled and ultracentrifuged at 48,000× g for 20 min at 4 °C [46]. The final pellet was resuspended and stored in liquid nitrogen until use.
In a medium containing the antagonist radioligand [^3H]-YM-09151-2 0.1 nM, 120 mM NaCl, 5 mM KCl, 5 mM MgCl2, 1.5 mM CaCl2, 1 mM EDTA and 50 mM Tris-HCl (pH 7.2 a 25 °C), 50 µg of […] striatum membrane was incubated in the dark (sodium light) for 60 min at 37 °C. Nonspecific binding was estimated using sulpiride (30 µM).

For series [2], the target named is human D3 dopaminergic receptor (D3R) (Homo sapiens, UniProt P35462). The experiment in a line: Competition binding of [3H]-spiperone and GTP-shift (functional binding) in membranes of recombinant Chem-1 cells. The conditions noted are these: for IC50: D3R, [3H]-spiperone 0.5 nM, 95% confidence interval in parentheses; for Na+-Shift (II/I) D3R: IC50 in NaCl + GTP (II) divided by IC50 in MgCl2 + CaCl2 (I); for Intrinsic Efficacy at D3R: classified from the Na+-shift (GTP-shift assay).

Setting [3] is: IC50 (MgCl2 + CaCl2), medium I: 5 mM MgCl2 and 1.5 mM CaCl2.
Where [4] appears, read: IC50 (NaCl + GTP), medium II: 154 mM NaCl and 1 mM GTP.

We go through six molecules from PMC9405847, “Design, Synthesis and Pharmacological Evaluation of Novel Conformationally Restricted N-arylpiperazine Derivatives Characterized as D2/D3 Receptor Ligands, Candidates for the Treatment of Neurodegenerative Diseases” (Biomolecules, 2022).

Structures are written as SMILES.

T1 sequence (P61169 whole entry): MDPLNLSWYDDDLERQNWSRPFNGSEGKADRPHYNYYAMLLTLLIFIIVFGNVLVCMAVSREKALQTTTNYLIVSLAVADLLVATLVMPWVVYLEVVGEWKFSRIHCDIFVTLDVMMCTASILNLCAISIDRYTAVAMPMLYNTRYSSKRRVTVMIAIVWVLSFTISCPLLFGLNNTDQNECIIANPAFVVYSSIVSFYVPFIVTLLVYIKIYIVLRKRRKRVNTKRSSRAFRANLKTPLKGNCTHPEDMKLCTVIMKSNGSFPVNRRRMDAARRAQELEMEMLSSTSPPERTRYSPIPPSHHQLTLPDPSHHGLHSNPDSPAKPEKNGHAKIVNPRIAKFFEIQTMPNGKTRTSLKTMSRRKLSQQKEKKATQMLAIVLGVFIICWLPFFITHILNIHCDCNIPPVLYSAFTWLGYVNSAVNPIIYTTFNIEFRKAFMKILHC
Sequence of human D3 dopaminergic receptor (D3R) (P35462 whole entry): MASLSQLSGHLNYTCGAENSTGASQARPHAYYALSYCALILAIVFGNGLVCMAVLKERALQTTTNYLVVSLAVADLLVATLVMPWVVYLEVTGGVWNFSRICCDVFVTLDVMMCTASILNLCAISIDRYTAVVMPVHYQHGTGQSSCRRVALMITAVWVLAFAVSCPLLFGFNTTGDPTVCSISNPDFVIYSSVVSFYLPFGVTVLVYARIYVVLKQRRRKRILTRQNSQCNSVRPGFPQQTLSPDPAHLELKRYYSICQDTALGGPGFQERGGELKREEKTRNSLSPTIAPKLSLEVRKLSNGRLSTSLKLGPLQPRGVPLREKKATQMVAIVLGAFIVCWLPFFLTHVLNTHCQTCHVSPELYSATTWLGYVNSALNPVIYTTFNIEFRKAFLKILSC

`Cc1cc2c(cc1S(=O)(=O)Nc1ccc(CN3CCN(c4ccccc4)CC3)cc1)OCO2` [Compound 5a, 6-Methyl-N-(4-((4-phenylpiperazin-1-yl)methyl)phenyl) Benzo [d] [1,3] Dioxole-5-sulfonamide] yielded a melting point of 154 to 156 °C. In series [1], this molecule returned a Ki of 440 nM. Moreover, the half-inhibitory concentration (IC50) in series [2] (setting [3]) came out at 1100 nM. The IC50 in series [2] (setting [4]) turned out to be 1200 nM. Besides, in series [2], the “Na+-Shift (II/I) D3R” value turned out to be 1.1 and the “Intrinsic Efficacy at D3R” value was “antagonist”.
`COc1ccccc1N1CCN(Cc2ccc(NS(=O)(=O)c3cc4c(cc3C)OCO4)cc2)CC1` [Compound 5b, N-(4-((4-(2-Methoxyphenyl)piperazin-1-yl)methyl)phenyl)-6-methylbenzo [d] [1,3] Dioxole-5-sulfonamide] had a melting point of 183 to 185 °C. The affinity in series [1], expressed as Ki, was 80 nM. The IC50 in series [2] (setting [3]) was determined as 760 nM. The IC50 in series [2] (setting [4]) was 290 nM. In series [2], the “Na+-Shift (II/I) D3R” value stood at 0.4 and the “Intrinsic Efficacy at D3R” value is “weak inverse agonist”.
As to `Cc1cc2c(cc1S(=O)(=O)Nc1ccc(CN3CCN(c4cccc(Cl)c4Cl)CC3)cc1)OCO2` [Compound 5c, N-(4-((4-(2,3-Dichlorophenyl)piperazin-1-yl)methyl)phenyl)-6-methylbenzo [d] [1,3] Dioxole-5-sulfonamide], the melting point lay in the range of 192 to 194 °C. The same molecule displayed a Ki in series [1] of 400 nM. Moreover, in series [2] (setting [3]), the IC50 is 750 nM. In series [2] (setting [4]), the IC50 was 780 nM. In addition, in series [2], the “Na+-Shift (II/I) D3R” value was found to be 1 and the “Intrinsic Efficacy at D3R” value is on record as “antagonist”.
As to `O=S(=O)(Nc1ccc(CN2CCN(c3ccccc3)CC2)cc1)c1ccc2c(c1)OCO2` [Compound 5d, N-(4-((4-Phenylpiperazin-1-yl) Methyl) Phenyl) Benzo [d] [1,3] Dioxole-5-Sulfonamide], the melting point fell in the range of 178 to 180 °C. Also, the Ki in series [1] was determined as 820 nM. In addition, in series [2] (setting [3]), the IC50 stood at 420 nM. In series [2] (setting [4]), the IC50 came to 990 nM. In series [2], the “Na+-Shift (II/I) D3R” value is given as 2.4 and the “Intrinsic Efficacy at D3R” value is reported as “partial agonist”.
For the molecule `COc1ccccc1N1CCN(Cc2ccc(NS(=O)(=O)c3ccc4c(c3)OCO4)cc2)CC1` [Compound 5e, N-(4-((4-(2-Methoxyphenyl)piperazin-1-yl)methyl)phenyl) Benzo [d] [1,3] Dioxole-5-sulfonamide], the melting point was 149 to 151 °C. Further, the Ki in series [1] was determined as 100 nM. In addition, in series [2] (setting [3]), the IC50 was 230 nM. Further, the IC50 in series [2] (setting [4]) was 200 nM. In series [2], the “Na+-Shift (II/I) D3R” value was 0.9 and the “Intrinsic Efficacy at D3R” value is on record as “antagonist”.
`O=S(=O)(Nc1ccc(CN2CCN(c3cccc(Cl)c3Cl)CC2)cc1)c1ccc2c(c1)OCO2` [Compound 5f, N-(4-((4-(2,3-Dichlorophenyl)piperazin-1-yl)methyl)phenyl) Benzo [d] [1,3] Dioxole-5-sulfonamide] returned a melting point of 163 to 166 °C. The molecule further came in with a Ki in series [1] of 200 nM. Moreover, in series [2] (setting [3]), the IC50 was determined as 110 nM. The half-inhibitory concentration (IC50) in series [2] (setting [4]) came out at 200 nM. Further, in series [2], the “Na+-Shift (II/I) D3R” value stood at 1.8 and the “Intrinsic Efficacy at D3R” value is on record as “partial agonist”.

In general, Ki refers to a dissociation constant, usually derived from enzyme kinetics or from competition with a known ligand. Read a low Ki as higher affinity. As usually defined, the melting point is the temperature of the solid-liquid transition. One may read the IC50 as the concentration that gives 50% inhibition.
